Measurements from patent US12570655B2, “Cysteine covalent modifiers of AKT1 and uses thereof” (Terremoto Biosciences, Inc., priority 2023, dated 2026).
Read-outs that look alike come from different tables or passages of the source.

Key:
Type in all cases: cell-based
AKT1 E17K = target: T1, AKT1 E17K (Homo sapiens, UniProt P31749, E17K); test: Live cell AKT1 E17K target engagement by NanoBRET competitive probe displacement; details: HEK293 cells transfected with kinase-NanoLuciferase fusion, 2 h at 37° C.
T1 construct: expressed in transfected cells; host or cells: HEK293
How it was run: (§1)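 IC50 reflects displacement of a fluorescent ATP-competitive tracer, dosed near its EC50, from kinase–NanoLuciferase fusions in live HEK293 cells. Cells were incubated with compound and tracer for 2 h at 37 °C, then E600/E460 BRET was read.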

[1] = tested on: LAPC4 prostate cancer cells; test: Antiproliferative effects in LAPC4 cells (CellTiter Glo); details: LAPC4 cells (AKT1 E17K allele), read-out: LAPC4 proliferation IC50
How it was run: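 Seed 1,000 cells/well in IMDM/12% FBS/1% P/S; add compound dilutions (DMSO); incubate 72 h; read intracellular ATP with CellTiter Glo; fit luminescence to log(inhibitor)-response Hill curve for IC50.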

AKT1 WT = target: T2, AKT1 WT (Homo sapiens, UniProt P31749); test: Live cell AKT1 WT target engagement by NanoBRET competitive probe displacement; details: HEK293 cells transfected with kinase-NanoLuciferase fusion, 2 h at 37° C.
T2 construct: expressed in transfected cells; host or cells: HEK293
How it was run: as §1

AKT2 = target: T3, AKT2 (Homo sapiens, UniProt P31751); test: Live cell AKT2 target engagement by NanoBRET competitive probe displacement; details: HEK293 cells transfected with kinase-NanoLuciferase fusion, 2 h at 37° C.
T3 construct: expressed in transfected cells; host or cells: HEK293
How it was run: as §1

T1 sequence (P31749 whole entry E17K, the tested form may be a part): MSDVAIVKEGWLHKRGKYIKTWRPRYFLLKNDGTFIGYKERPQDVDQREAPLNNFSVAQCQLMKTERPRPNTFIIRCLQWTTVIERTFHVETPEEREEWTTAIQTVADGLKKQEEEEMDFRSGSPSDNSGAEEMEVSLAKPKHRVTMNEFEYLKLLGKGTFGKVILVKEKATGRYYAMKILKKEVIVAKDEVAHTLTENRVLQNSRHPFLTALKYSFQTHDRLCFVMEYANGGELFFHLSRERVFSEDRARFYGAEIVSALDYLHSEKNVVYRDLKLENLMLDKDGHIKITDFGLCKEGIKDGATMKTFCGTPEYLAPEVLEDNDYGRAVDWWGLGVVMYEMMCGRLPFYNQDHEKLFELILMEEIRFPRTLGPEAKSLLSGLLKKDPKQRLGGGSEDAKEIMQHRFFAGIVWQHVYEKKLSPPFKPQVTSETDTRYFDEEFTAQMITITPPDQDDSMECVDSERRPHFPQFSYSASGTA
T3 sequence (P31751 whole entry, the tested form may be a part): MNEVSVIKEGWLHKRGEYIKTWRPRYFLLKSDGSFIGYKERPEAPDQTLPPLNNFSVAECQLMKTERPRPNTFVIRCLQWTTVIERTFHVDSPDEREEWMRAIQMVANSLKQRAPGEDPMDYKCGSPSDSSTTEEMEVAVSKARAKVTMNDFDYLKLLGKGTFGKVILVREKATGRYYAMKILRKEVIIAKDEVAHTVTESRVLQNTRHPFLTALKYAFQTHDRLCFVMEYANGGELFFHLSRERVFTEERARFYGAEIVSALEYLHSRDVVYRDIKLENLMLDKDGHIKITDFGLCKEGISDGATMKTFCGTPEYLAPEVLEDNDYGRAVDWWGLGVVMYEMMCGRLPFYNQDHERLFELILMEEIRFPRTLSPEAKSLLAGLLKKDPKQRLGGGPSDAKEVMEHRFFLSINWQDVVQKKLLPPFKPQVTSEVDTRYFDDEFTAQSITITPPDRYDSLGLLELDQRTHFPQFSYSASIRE
T2 sequence (P31749 whole entry, the tested form may be a part): as the sequence (P31749 whole entry E17K, the tested form may be a part) above, with K17E counted along it

Structure (SMILES) | IC50 (AKT1 E17K) | IC50 ([1]; Homo sapiens, LAPC4, 72 h) | IC50 (AKT1 WT) | IC50 (AKT2) | IC50 ([1]; 72 h)
C=CC(=O)N1CCC(c2cn([C@H]3CCc4cc(-n5c(-c6cccnc6N)nc6ccc(-n7cccn7)nc65)ccc43)nn2)CC1 [Example 169, 1-(4-{1-[(1S)-5-[2-(2-aminopyridin-3-yl)-5-(pyrazol-1-yl)imidazo[4,5-b]pyridin-3-yl]-2,3-dihydro-1H-inden-1-yl]-1,2,3-triazol-4-yl}piperidin-1-yl)prop-2-en-1-one] | 0.0537 µM | 0.565 µM | 0.593 µM | 0.115 µM | 
C=CC(=O)N1CCC(N[C@H]2CCc3cc(-n4c(-c5cccnc5N)nc5ccc(-n6cccn6)nc54)ccc32)C[C@H]1C (single isomer, unassigned) [Example 63, 1-((2R,4*)-4-(((S)-5-(2-(2-aminopyridin-3-yl)-5-(1H-pyrazol-1-yl)-3H-imidazo[4,5-b]pyridin-3-yl)-2,3-dihydro-1H-inden-1-yl)amino)-2-methylpiperidin-1-yl)prop-2-en-1-one] | 0.0475 µM |  | 0.0241 µM | 0.248 µM | 0.124 µM
C=C(F)C(=O)Nc1cnn(C)c1C(=O)N[C@H]1CCc2cc(-n3c(-c4cccnc4N)nc4ccc(-n5cccn5)nc43)ccc21 [Example 35, (S)-N-(5-(2-(2-aminopyridin-3-yl)-5-(1H-pyrazol-1-yl)-3H-imidazo[4,5-b]pyridin-3-yl)-2,3-dihydro-1H-inden-1-yl)-4-(2-fluoroacrylamido)-1-methyl-1H-pyrazole-5-carboxamide] | > 1 µM | 5.66 µM | 0.243 µM | 2.94 µM | 
C=CC(=O)N1CCC2(CC1)CC(N[C@H]1CCc3cc(-n4c(-c5cccnc5N)nc5ccc(-n6cccn6)nc54)ccc31)C2 [Example 30, 1-(2-{[(1S)-5-[2-(2-aminopyridin-3-yl)-5-(pyrazol-1-yl)imidazo[4,5-b]pyridin-3-yl]-2,3-dihydro-1H-inden-1-yl]amino}-7-azaspiro[3.5]nonan-7-yl)prop-2-en-1-one] | > 1 µM | 2.6 µM | 0.296 µM | 4.83 µM | 
C=CC(=O)N1CCC(N[C@H]2CCc3cc(-n4c(-c5cccnc5N)nc5ccc(-n6cccn6)nc54)ccc32)C[C@@H]1C (single isomer, unassigned) [Example 66, 1-((2S,4*)-4-(((S)-5-(2-(2-aminopyridin-3-yl)-5-(1H-pyrazol-1-yl)-3H-imidazo[4,5-b]pyridin-3-yl)-2,3-dihydro-1H-inden-1-yl)amino)-2-methylpiperidin-1-yl)prop-2-en-1-one] | 0.0296 µM |  | 0.0121 µM | 0.0515 µM | 0.068 µM
C=CC(=O)N1C2CCC1CC(N[C@H]1CCc3cc(-n4c(-c5cccnc5N)nc5ccc(-n6cccn6)nc54)ccc31)C2 (stereo partly drawn) [Example 27, 1-(3-(((S)-5-(2-(2-aminopyridin-3-yl)-5-(1H-pyrazol-1-yl)-3H-imidazo[4,5-b]pyridin-3-yl)-2,3-dihydro-1H-inden-1-yl)amino)-8-azabicyclo[3.2.1]octan-8-yl)prop-2-en-1-one] | 0.107 µM | 0.425 µM | 0.0394 µM | 0.192 µM | 
C=CC(=O)N1CCC(N[C@@H]2c3ccc(-n4c(-c5cccnc5N)nc5ccc(-n6cccn6)nc54)cc3CC2OC)CC1 (single isomer, unassigned) [Example 163, 1-(4-(((1R,2*)-5-(2-(2-aminopyridin-3-yl)-5-(1H-pyrazol-1-yl)-3H-imidazo[4,5-b]pyridin-3-yl)-2-methoxy-2,3-dihydro-1H-inden-1-yl)amino)piperidin-1-yl)prop-2-en-1-one] | 0.642 µM |  | 0.0717 µM | 1.91 µM | 0.879 µM
C=CC(=O)Nc1cccc(C)c1C(=O)N[C@H]1CCc2cc(-n3c(-c4cccnc4N)nc4ccc(-n5cccn5)nc43)ccc21 [Example 15, (S)-2-acrylamido-N-(5-(2-(2-aminopyridin-3-yl)-5-(1H-pyrazol-1-yl)-3H-imidazo[4,5-b]pyridin-3-yl)-2,3-dihydro-1H-inden-1-yl)-6-methylbenzamide] | 0.0787 µM | 0.366 µM | 0.0343 µM | 0.377 µM | 
C=CC(=O)Nc1ccccc1CN[C@H]1CCc2cc(-n3c(-c4cccnc4N)nc4ccc(-n5cccn5)nc43)ccc21 [Example 39, N-[2-({[(1S)-5-[2-(2-aminopyridin-3-yl)-5-(pyrazol-1-yl)imidazo[4,5-b]pyridin-3-yl]-2,3-dihydro-1H-inden-1-yl]amino}methyl)phenyl]prop-2-enamide] | 0.0949 µM | 1.6 µM | 0.0642 µM | 0.0948 µM | 

Results, then the molecule that gave them:

IC50 (AKT1 E17K) | IC50 ([1]; Homo sapiens, LAPC4, 72 h) | IC50 (AKT1 WT) | IC50 (AKT2) | IC50 ([1]; 72 h) | Structure (SMILES)
0.0433 µM |  | 0.555 µM | 0.136 µM | 0.227 µM | C=CC(=O)N1CCC(N[C@H]2CCc3cc(-n4c(-c5cccnc5N)nc5ccc(-n6nccn6)nc54)ccc32)C[C@H]1C (single isomer, unassigned) [Example 261, 1-[(2R,4*)-4-{[(1S)-5-[2-(2-aminopyridin-3-yl)-5-(1,2,3-triazol-2-yl)imidazo[4,5-b]pyridin-3-yl]-2,3-dihydro-1H-inden-1-yl]amino}-2-methylpiperidin-1-yl]prop-2-en-1-one]
0.038 µM |  | 2.09 µM | 0.212 µM | 1.53 µM | C=CC(=O)N1CCC(N[C@@H]2c3ccc(-n4c(-c5cccnc5N)nc5ccc(-n6cccn6)nc54)cc3CC2F)C(C)C1 (single isomer, unassigned) [Example 288, 1-[(3*,4*)-4-{[(1R,2*)-5-[2-(2-aminopyridin-3-yl)-5-(pyrazol-1-yl)imidazo[4,5-b]pyridin-3-yl]-2-fluoro-2,3-dihydro-1H-inden-1-yl]amino}-3-methylpiperidin-1-yl]prop-2-en-1-one]
0.0152 µM | 0.464 µM | 1.59 µM | 0.086 µM |  | C=CC(=O)N1CCC(N[C@H]2CCc3cc(-n4c(-c5ccccc5)nc5ccc(-n6ccc(F)n6)nc54)ccc32)CC1 [Example 282, 1-(4-{[(1S)-5-[5-(3-fluoropyrazol-1-yl)-2-phenylimidazo[4,5-b]pyridin-3-yl]-2,3-dihydro-1H-inden-1-yl]amino}piperidin-1-yl)prop-2-en-1-one]
0.0994 µM | 1.6 µM | 1.26 µM | 0.633 µM |  | C=CC(=O)N1CCC(CN[C@H]2CCc3cc(-n4c(-c5cccnc5N)nc5ccc(-n6cccn6)nc54)ccc32)(OC)CC1 [Example 183, 1-[4-({[(1S)-5-[2-(2-aminopyridin-3-yl)-5-(pyrazol-1-yl)imidazo[4,5-b]pyridin-3-yl]-2,3-dihydro-1H-inden-1-yl]amino}methyl)-4-methoxypiperidin-1-yl]prop-2-en-1-one]
0.032 µM | 1.16 µM | 1.64 µM | 0.432 µM |  | C=CC(=O)N1CCN(N[C@H]2CCc3cc(-n4c(-c5cccnc5N)nc5ccc(C6CC6)nc54)ccc32)CC1 [Example 349]
0.0332 µM | 0.214 µM | 0.547 µM | 0.177 µM |  | C=CC(=O)N1CCC(N[C@H]2CCc3cc(-n4c(-c5cccnc5N)nc5ccc(-c6ncc(C)o6)nc54)ccc32)CC1 [Example 255, 1-(4-{[(1S)-5-[2-(2-aminopyridin-3-yl)-5-(5-methyl-1,3-oxazol-2-yl)imidazo[4,5-b]pyridin-3-yl]-2,3-dihydro-1H-inden-1-yl]amino}piperidin-1-yl)prop-2-en-1-one]
0.0196 µM |  | 0.799 µM | 0.145 µM | 0.682 µM | C=CC(=O)N1CCC(N[C@@H]2c3ccc(-n4c(-c5cccnc5N)nc5ccc(-n6cccn6)nc54)cc3CC2F)C(C)C1 (single isomer, unassigned) [Example 289, 1-[(3*,4*)-4-{[(1R,2*)-5-[2-(2-aminopyridin-3-yl)-5-(pyrazol-1-yl)imidazo[4,5-b]pyridin-3-yl]-2-fluoro-2,3-dihydro-1H-inden-1-yl]amino}-3-methylpiperidin-1-yl]prop-2-en-1-one]
0.0369 µM |  | 1.52 µM | 0.114 µM | 0.416 µM | C=CC(=O)N1CCC(N[C@H]2CCc3cc(-n4c(-c5cccnc5N)nc5ccc(C6CC6)nc54)ccc32)C(F)C1 (single isomer, unassigned) [Example 177, 1-((3*,4*)-4-(((S)-5-(2-(2-aminopyridin-3-yl)-5-cyclopropyl-3H-imidazo[4,5-b]pyridin-3-yl)-2,3-dihydro-1H-inden-1-yl)amino)-3-fluoropiperidin-1-yl)prop-2-en-1-one]
0.0102 µM | 0.101 µM | 0.0896 µM | 0.0246 µM |  | C=CC(=O)N(C)Cc1ccccc1C(=O)N[C@H]1CCc2cc(-n3c(-c4cccnc4N)nc4ccc(-n5cccn5)nc43)ccc21 [Example 265, (S)-N-(5-(2-(2-aminopyridin-3-yl)-5-(1H-pyrazol-1-yl)-3H-imidazo[4,5-b]pyridin-3-yl)-2,3-dihydro-1H-inden-1-yl)-2-((N-methylacrylamido)methyl)benzamide]
0.0123 µM |  | 0.294 µM | 0.106 µM | 0.345 µM | C=CC(=O)N1CCC(N[C@H]2CCc3cc(-n4c(-c5cccnc5N)nc5ccc(-n6cccn6)nc54)ccc32)C(C)(F)C1 (single isomer, unassigned) [Example 307, 1-((3*,4*)-4-(((S)-5-(2-(2-aminopyridin-3-yl)-5-(1H-pyrazol-1-yl)-3H-imidazo[4,5-b]pyridin-3-yl)-2,3-dihydro-1H-inden-1-yl)amino)-3-fluoro-3-methylpiperidin-1-yl)prop-2-en-1-one]
